Source: patent US20200247849A1, “PEPTIDE AGONISTS AND ANTAGONISTS OF TLR4 ACTIVATION” (PEPTICOM LTD, priority 2016, published 2020)
Non-standard residues stand in square brackets, D forms with d. No end group written: not given here. Chg = N[C@H](C(=O)O)C1CCCCC1; Ava = NCCCCC(=O)O

Biological target: T1, TLR4/MD2 (Homo sapiens, UniProt O00206+Q9Y6Y9)
T1 construct: expressed in transfected cells; host or cells: NIH3T3 (NIH 3T3 PRR SEAP-TLR4/MD2)
Experiment: Reporter gene assay, NIH3T3 cells TLR4 with MD2 co-receptor
Type: cell-based
Settings: not given
Excerpt: FIGS. 6A-6V present peptide activity using NIH3T3 cells that express TLR4, with either the MD2 co-receptor (top) or CD14 co-receptor (bottom), for peptides of SEQ ID Nos. 1-22, respectively, according to some embodiments of the invention. FIGS. 6A-6V show the dose response inhibitor/activator effects of the designed peptides using a reporter gene assay. The reporter gene assay is composed of NIH3T3 cells transfected with either MD2 or CD14 along with TLR4 and the NF-κB-inducible reporter gene Secreted Alkaline Phosphatase (SEAP) to monitor TLR4 activation (Burger-Kentischer et al. 2010, A new cell-based innate immune receptor assay for the examination of receptor activity, ligand specificity, signaling pathways and the detection of pyrogens. J Immunol Methods. 358(1-2): 93-103). […] The receptors are coupled to for the detection of inhibitory activity, cells were treated with the peptide prior to exposure to LPS and the response to LPS is measured at variable peptide doses (as labeled). […]
At Day 3: To determine the final SEAP value, 50 μl of the supernatant is carefully transferred in a new 96-well plate (Greiner-F-plate) and 50 μl of the substrate (pNPP; p-nitrophenyl phosphate) is added. SEAP catalyzes the hydrolysis of pNPP to the final product para-nitrophenol (yellow) which can be detected by a photometric analysis using an UV-VIS reader at 405 nm. […]

T1 sequence (O00206 24-839): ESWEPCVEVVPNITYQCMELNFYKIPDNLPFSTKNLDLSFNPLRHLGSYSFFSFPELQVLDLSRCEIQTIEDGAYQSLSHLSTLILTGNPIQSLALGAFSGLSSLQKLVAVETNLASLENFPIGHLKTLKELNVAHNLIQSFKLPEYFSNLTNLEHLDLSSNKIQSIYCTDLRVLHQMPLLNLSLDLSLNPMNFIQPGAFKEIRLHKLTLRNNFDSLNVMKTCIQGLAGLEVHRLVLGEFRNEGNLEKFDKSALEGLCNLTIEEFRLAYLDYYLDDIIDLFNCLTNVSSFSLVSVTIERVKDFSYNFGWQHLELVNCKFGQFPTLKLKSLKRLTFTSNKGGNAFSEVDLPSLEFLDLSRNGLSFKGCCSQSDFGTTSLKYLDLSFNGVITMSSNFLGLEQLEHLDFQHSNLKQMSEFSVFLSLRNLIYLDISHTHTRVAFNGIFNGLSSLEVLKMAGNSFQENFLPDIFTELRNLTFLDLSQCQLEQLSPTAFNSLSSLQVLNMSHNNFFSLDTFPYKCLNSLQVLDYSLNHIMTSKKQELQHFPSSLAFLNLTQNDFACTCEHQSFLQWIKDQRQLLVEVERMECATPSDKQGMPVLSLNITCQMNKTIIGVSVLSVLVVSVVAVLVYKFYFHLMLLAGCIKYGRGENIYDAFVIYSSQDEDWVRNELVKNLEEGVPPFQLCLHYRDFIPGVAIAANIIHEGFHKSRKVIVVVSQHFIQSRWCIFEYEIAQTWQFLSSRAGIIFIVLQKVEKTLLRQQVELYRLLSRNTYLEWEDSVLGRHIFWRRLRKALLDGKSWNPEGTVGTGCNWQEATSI
T1 sequence (Q9Y6Y9 19-160): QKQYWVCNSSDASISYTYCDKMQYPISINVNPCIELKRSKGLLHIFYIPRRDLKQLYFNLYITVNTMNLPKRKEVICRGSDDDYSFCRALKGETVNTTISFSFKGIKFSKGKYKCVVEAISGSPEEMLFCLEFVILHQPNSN

Row | Substance | activation with respect to MD2
1 | c[WMLGMESI] (cyclic; Activator, cyclic) [SEQ ID No. 7] | weak activator

Tested on: whole human blood
Experiment: IL-1β ELISA after 24-hour incubation with whole human blood
Type: cell-based
Design: key: 0: no effect of the compound alone/no effect of the compound in addition to LPS alone; +: small effect of the compound alone/small effect of the compound in addition to LPS alone; ++: intermediate effect of the comp. alone/intermediate effect of the comp. in add. to LPS alone; +++: strong effect of the compound alone/strong effect of the compound in addition to LPS alone
Settings: LPS 100 pg/ml
Experimental: One attribute of TLR-4 activation is the release of the pro-inflammatory cytokine Interleukin-1β (IL1β). Several of our discovered peptides were tested for IL1β induction by ELISA following a 24-hour incubation with whole human blood. IL1β induction was measured with increasing dosage of the peptides alone, or with a fixed dosage of LPS (100 pg/ml).

Row | Substance | IL-1β ELISA after blood activation Induction with compound + LPS
2 | 1(N′) Ava-OH-2Leu-3Tyr-4Met-5Ser-6Leu-7Lys-8Trp-9Met (C′) ([Ava]LYMSLKWM; also: Ava-OH) [SEQ ID No. 4 (M1)] | +++
3 | (N′) Chg-2Leu-3Tyr-4Met-5Ser-6Leu-7Lys-8Trp-9Met (C′) ([Chg]LYMSLKWM) [SEQ ID No. 4 (M2)] | +++
4 | ILYMSLKWM (Activator) [SEQ ID No. 4] | +++
5 | RYETMSIMIKSGGKG-(methyl group replacing C-terminus) [SEQ ID No. 1 (M3)] | 0
6 | RYETMSIMIKSGGKY (not fully specified) [SEQ ID No. 1 (M1)] | +++
7 | RYETMSIMIKSGGKY-(methyl group replacing C-terminus) (RYETMSIMIKSGGKY-CH3) [SEQ ID No. 1 (M2)] | 0
8 | c[MLSFRM] (cyclic; Activator, cyclic) [SEQ ID No. 6] | +++

Same assay, conditions: compound alone

Row | Substance | IL-1β ELISA after blood activation Induction with compound alone
9 | 1(N′) Ava-OH-2Leu-3Tyr-4Met-5Ser-6Leu-7Lys-8Trp-9Met (C′) ([Ava]LYMSLKWM; also: Ava-OH) [SEQ ID No. 4 (M1)] | +
10 | (N′) Chg-2Leu-3Tyr-4Met-5Ser-6Leu-7Lys-8Trp-9Met (C′) ([Chg]LYMSLKWM) [SEQ ID No. 4 (M2)] | +
11 | ILYMSLKWM (Activator) [SEQ ID No. 4] | 0
12 | RYETMSIMIKSGGKG-(methyl group replacing C-terminus) [SEQ ID No. 1 (M3)] | 0
13 | RYETMSIMIKSGGKY (not fully specified) [SEQ ID No. 1 (M1)] | ++
14 | RYETMSIMIKSGGKY-(methyl group replacing C-terminus) (RYETMSIMIKSGGKY-CH3) [SEQ ID No. 1 (M2)] | 0
15 | c[MLSFRM] (cyclic; Activator, cyclic) [SEQ ID No. 6] | +

Tested on: TLR4 with MD2 or CD14 co-receptor
Experiment: Reporter gene (SEAP) PAMP assay in NIH3T3 cells expressing TLR4 with MD2 or CD14 co-receptor
Type: cell-based
Design: key to PAMP assay (NIH3T3 cells) Induction with compound alone / PAMP assay (NIH3T3 cells) Induction with compound + LPS: 0: no effect of the compound alone/no effect of the compound in addition to LPS alone; +: small effect of the compound alone/small effect of the compound in addition to LPS alone; ++: intermediate effect of the comp. alone/intermediate effect of the comp. in add. to LPS alone; +++: strong effect of the compound alone/strong effect of the compound in addition to LPS alone
Settings: co-receptor (MD2/CD14) via which the effect occurs; summary of FIGS. 6A-6V
Excerpt: FIGS. 6A-6V show the dose response inhibitor/activator effects of the designed peptides using a reporter gene assay. The reporter gene assay is composed of NIH3T3 cells transfected with either MD2 or CD14 along with TLR4 and the NF-κB-inducible reporter gene Secreted Alkaline Phosphatase (SEAP) to monitor TLR4 activation (Burger-[…] al. 2010, A new cell-based innate immune receptor assay for the examination of receptor activity, ligand specificity, signaling pathways and the detection of pyrogens. […] The receptors are coupled to for the detection of inhibitory activity, cells were treated with the peptide prior to exposure to LPS and the response to LPS is measured at variable peptide doses (as labeled). The detection of cell activation was performed using the peptide alone, at variable doses, as indicated in the respective graphs. The following presents in more details the experimental procedures. Experimental setup: The cell-based Assay is performed with different NIH3T3 reporter cell lines (NIH 3T3 PRR SEAP-TLR4/CD14 or -TLR4/MD2) and the control cell line NIH 3T3 SEAP. The NIH3T3 SEAP cell line is used in order to determine the background of the alkaline phosphatase expression. It is a cell line stably transfected with only the reporter gene plasmid. For each assay a vial of the master cell bank is revitalized and seeded in a standard cell culture flask (75 cm^2 T-Flask) at day one. Cells are cultured in 20 ml culture media (DMEM supplemented with 10% FCS (heat inactivated), 50 units/ ml penicillin, 0.05 mg/ ml streptomycin and 2 mmol/ L L-glutamine). The cells are cultured at 37° C. in a 5% CO2 humidified atmosphere. At Day 1: For the PAMP Assay cells are seeded in a 96-well plate at a density of 0.3.10^5 cells/well in a final volume of 100 μl culture media (DMEM, 10% FCS (heat inactivated)). To ensure equal culture conditions the 96-well cell culture plates are placed side by side and cultivated in a humidified CO2 incubator (37° C. and 5% CO2). […] After a cultivation period of 24 h the media is removed and replaced with the respective volume of fresh media (DMEM, 0.5% FCS (heat inactivated)).The lyophilized peptides are stored in a freezer at -20° C. upon arrival. For the experiments they are dissolved in DMSO (to the highest possible concentration). Before opening the peptides are allowed to equilibrate to room temperature (in order to reduce the uptake of moisture). For each experiment the stock solution is diluted in DMEM to the appropriate working concentration. […] Sonication was also used to help dissolve the peptides. Immediately after replacing the media, the diluted peptides are applied in a serial dilution to the cells and directly after that the agonist is added to the cells. After adding peptide and […] the final volume in each well of a 96 well plate amounts 100 μl/well. The culture medium containing 0.5% FCS is used as a negative reference item. The induction is performed for 18 h at 37° C. and 5% CO2. At Day 3: To determine the final SEAP value, 50 μl of the supernatant is carefully transferred in a new 96-well plate (Greiner-F-plate) and 50 μl of the substrate (pNPP; p-nitrophenyl phosphate) is added. SEAP catalyzes the hydrolysis of pNPP to the final product para-nitrophenol (yellow) which can be detected by a photometric analysis using an UV-VIS reader at 405 nm. […] The results of FIGS. 6A-6V with respect to peptide activity are summarized in Table 1 above with respect to the type of effect of the respective peptide (activation/inhibition) and with respect to the corresponding co-receptor (MD2/CD14). Data concerning SEQ ID No. 22 with respect to co-receptor CD14 is in preparation.

Row | Substance | Co-Receptor/s
16 | 1(N′) Ava-OH-2Leu-3Tyr-4Met-5Ser-6Leu-7Lys-8Trp-9Met (C′) ([Ava]LYMSLKWM; also: Ava-OH) [SEQ ID No. 4 (M1)] | MD2/CD14
17 | (N′) Chg-2Leu-3Tyr-4Met-5Ser-6Leu-7Lys-8Trp-9Met (C′) ([Chg]LYMSLKWM) [SEQ ID No. 4 (M2)] | MD2/CD14
18 | ILYMSLKWM (Activator) [SEQ ID No. 4] | MD2/CD14
19 | RYETMSIMIKSGGKG-(methyl group replacing C-terminus) [SEQ ID No. 1 (M3)] | MD2/CD14
20 | RYETMSIMIKSGGKY (not fully specified) [SEQ ID No. 1 (M1)] | MD2/CD14
21 | RYETMSIMIKSGGKY-(methyl group replacing C-terminus) (RYETMSIMIKSGGKY-CH3) [SEQ ID No. 1 (M2)] | MD2/CD14
22 | c[MLSFRM] (cyclic; Activator, cyclic) [SEQ ID No. 6] | MD2/CD14
23 | c[WMLGMESI] (cyclic; Activator, cyclic) [SEQ ID No. 7] | CD14

Same assay, conditions: compound + LPS

Row | Substance | PAMP assay (NIH3T3 cells) Induction with compound + LPS
24 | 1(N′) Ava-OH-2Leu-3Tyr-4Met-5Ser-6Leu-7Lys-8Trp-9Met (C′) ([Ava]LYMSLKWM; also: Ava-OH) [SEQ ID No. 4 (M1)] | ++
25 | (N′) Chg-2Leu-3Tyr-4Met-5Ser-6Leu-7Lys-8Trp-9Met (C′) ([Chg]LYMSLKWM) [SEQ ID No. 4 (M2)] | ++
26 | ILYMSLKWM (Activator) [SEQ ID No. 4] | +++
27 | RYETMSIMIKSGGKG-(methyl group replacing C-terminus) [SEQ ID No. 1 (M3)] | +
28 | RYETMSIMIKSGGKY (not fully specified) [SEQ ID No. 1 (M1)] | +
29 | RYETMSIMIKSGGKY-(methyl group replacing C-terminus) (RYETMSIMIKSGGKY-CH3) [SEQ ID No. 1 (M2)] | +
30 | c[MLSFRM] (cyclic; Activator, cyclic) [SEQ ID No. 6] | ++

Same assay, conditions: compound alone

Row | Substance | PAMP assay (NIH3T3 cells) Induction with compound alone
31 | 1(N′) Ava-OH-2Leu-3Tyr-4Met-5Ser-6Leu-7Lys-8Trp-9Met (C′) ([Ava]LYMSLKWM; also: Ava-OH) [SEQ ID No. 4 (M1)] | ++
32 | (N′) Chg-2Leu-3Tyr-4Met-5Ser-6Leu-7Lys-8Trp-9Met (C′) ([Chg]LYMSLKWM) [SEQ ID No. 4 (M2)] | ++
33 | ILYMSLKWM (Activator) [SEQ ID No. 4] | +
34 | RYETMSIMIKSGGKG-(methyl group replacing C-terminus) [SEQ ID No. 1 (M3)] | +
35 | RYETMSIMIKSGGKY (not fully specified) [SEQ ID No. 1 (M1)] | +
36 | RYETMSIMIKSGGKY-(methyl group replacing C-terminus) (RYETMSIMIKSGGKY-CH3) [SEQ ID No. 1 (M2)] | +
37 | c[MLSFRM] (cyclic; Activator, cyclic) [SEQ ID No. 6] | ++

Same assay, conditions: type of effect (activation/inhibition) on TLR4; summary of FIGS. 6A-6V

Row | Substance | Activity
38 | 1(N′) Ava-OH-2Leu-3Tyr-4Met-5Ser-6Leu-7Lys-8Trp-9Met (C′) ([Ava]LYMSLKWM; also: Ava-OH) [SEQ ID No. 4 (M1)] | Activator
39 | (N′) Chg-2Leu-3Tyr-4Met-5Ser-6Leu-7Lys-8Trp-9Met (C′) ([Chg]LYMSLKWM) [SEQ ID No. 4 (M2)] | Activator
40 | ILYMSLKWM (Activator) [SEQ ID No. 4] | Activator
41 | RYETMSIMIKSGGKG-(methyl group replacing C-terminus) [SEQ ID No. 1 (M3)] | Activator
42 | RYETMSIMIKSGGKY (not fully specified) [SEQ ID No. 1 (M1)] | Activator
43 | RYETMSIMIKSGGKY-(methyl group replacing C-terminus) (RYETMSIMIKSGGKY-CH3) [SEQ ID No. 1 (M2)] | Activator
44 | c[MLSFRM] (cyclic; Activator, cyclic) [SEQ ID No. 6] | Activator
45 | c[WMLGMESI] (cyclic; Activator, cyclic) [SEQ ID No. 7] | Activator
